What was measured:
[1] = system: Glomerella lagenarium (Colletotrichum lagenarium); assay: Fungicidal activity against Glomerella lagenarium (Colletotrichum lagenarium) liquid culture / cucumber / preventative (anthracnose); format: cell-based; conditions: Colletotrichum orbiculare; 20 ppm in the applied formulation; liquid culture in PDB, 24° C.; 3 to 4 days after application; read-out: disease control compared to untreated control (inhibition of growth measured photometrically)
Protocol: Mycelia fragments or conidia suspensions of a fungus prepared either freshly from liquid cultures of the fungus or from cryogenic storage, are directly mixed into nutrient broth. DMSO solutions of the test compound (max. 10 mg/ml) are diluted with 0.025% Tween20 by a factor of 50 and 10 μl of this solution is pipetted into a microtiter plate (96-well format). The nutrient broth containing the fungal spores/mycelia fragments is then added to give an end concentration of the tested compound. The test plates are incubated in the dark at 24° C. and 96% relative humidity. The inhibition of fungal growth is determined photometrically after 2 to 7 days, depending on the pathosystem, and percent antifungal activity relative to the untreated check is calculated.
Conidia of the fungus from cryogenic storage are directly mixed into nutrient broth (PDB—potato dextrose broth). After placing a (DMSO) solution of test compound into a microtiter plate (96-well format), the nutrient broth containing the fungal spores is added. The test plates are incubated at 24° C. and the inhibition of growth is measured photometrically 3 to 4 days after application.
The following compounds at 20 ppm in the applied formulation give at least 80% disease control in this test when compared to untreated control under the same conditions, which show extensive disease development.

[2] = system: Puccinia recondite f. Sp. Tritici; assay: Fungicidal activity against Puccinia recondite f. sp. tritici / wheat / leaf disc curative (brown rust); format: in vivo; conditions: foliar, 200 ppm in the applied formulation, wheat leaf segments cv. Kanzler, applied 1 day after inoculation, assessed 6 to 8 days after application, read-out: disease control compared to untreated control leaf disks
Protocol: (§1) Leaf disks or leaf segments of various plant species are cut from plants grown in a greenhouse. The cut leaf disks or segments are placed in multiwell plates (24-well format) onto water agar. The leaf disks are sprayed with a test solution before (preventative) or after (curative) inoculation. Compounds to be tested are prepared as DMSO solutions (max. 10 mg/ml) which are diluted to the appropriate concentration with 0.025% Tween20 just before spraying. The inoculated leaf disks or segments are incubated under defined conditions (temperature, relative humidity, light, etc.) according to the respective test system. A single evaluation of disease level is carried out 3 to 14 days after inoculation, depending on the pathosystem. Percent disease control relative to the untreated check leaf disks or segments is then calculated.
Wheat leaf segments cv. Kanzler are placed on agar in multiwell plates (24-well format). The leaf segments are then inoculated with a spore suspension of the fungus. Plates were stored in darkness at 19° C. and 75% relative humidity. The formulated test compound diluted in water was applied 1 day after inoculation. The leaf segments were incubated at 19° C. and 75% relative humidity under a light regime of 12 hours light/12 hours darkness in a climate cabinet and the activity of a compound was assessed as percent disease control compared to untreated when an appropriate level of disease damage appears in untreated check leaf segments (6 to 8 days after application).
(§2) The following compounds at 200 ppm in the applied formulation give at least 80% disease control in this test when compared to untreated control leaf disks under the same conditions, which show extensive disease development.

Phakopsora pachyrhizi = assay: Fungicidal activity against Phakopsora pachyrhizi / soybean / leaf disc preventative (Asian soybean rust); format: in vivo; conditions: foliar, 200 ppm in the applied formulation, soybean leaf disks, inoculated one day after application, assessed 12 to 14 days after application, read-out: disease control compared to untreated control leaf disks
Protocol: as §1
Soybean leaf disks are placed on water agar in multiwell plates (24-well format) and sprayed with the formulated test compound diluted in water. One day after application leaf discs are inoculated by spraying a spore suspension on the lower leaf surface. After an incubation period in a climate cabinet of 24-36 hours in darkness at 20° C. and 75% rh leaf disc are kept at 20° C. with 12 h light/day and 75% rh. The activity of a compound is assessed as percent disease control compared to untreated when an appropriate level of disease damage appears in untreated check leaf disks (12 to 14 days after application).
as §2

[3] = system: Puccinia recondita f. Sp. Tritici; assay: Fungicidal activity against Puccinia recondita f. sp. tritici / wheat / leaf disc preventative (brown rust); format: in vivo; conditions: foliar, 200 ppm in the applied formulation, wheat leaf segments cv. Kanzler, inoculated 1 day after application, assessed 7 to 9 days after application, read-out: disease control compared to untreated control leaf disks
Protocol: as §1, with “calculated. Wheat leaf segments cv. Kanzler were placed on agar in multiwell plates (24-well format) and sprayed with the formulated test compound diluted in water. The leaf disks were inoculated with a spore suspension of the fungus 1 day after application. The inoculated leaf segments were incubated at 19° C. and 75% relative humidity (rh) under a light regime of 12 hours light/12 hours darkness in a climate cabinet and the activity of a compound was assessed as percent disease control compared to untreated when an appropriate level of disease damage appears in untreated check leaf segments (7 to 9 days after application). The following compounds at 200 ppm in the applied formulation give at least 80% disease control in this test when compared to untreated control leaf disks under the same conditions, which show extensive disease development.” for “calculated.”

Row | SMILES | inhibition at 20 ppm [1] [%] | pest or weed control at 200 ppm [2] [%] | pest or weed control at 200 ppm (Phakopsora pachyrhizi) [%] | melting point [°C] | pest or weed control at 200 ppm [3] [%]
1 | CCN1OCC(NC(=O)C(=O)c2ccc(-c3noc(C(F)(F)F)n3)cc2)C1=O (centres unmarked) [Compound 1.21, N-(2-ethyl-3-oxo-isoxazolidin-4-yl)-2-oxo-2-[4-[5-(trifluoromethyl)-1,2,4-oxadiazol-3-yl]phenyl]acetamide] | ≥ 80 | ≥ 80 | ≥ 80 | 162 to 165 | ≥ 80
2 | COc1cccc(NC(=O)C(=O)c2ccc(-c3noc(C(F)(F)F)n3)cc2)n1 [Compound 1.24, N-(6-methoxy-2-pyridyl)-2-oxo-2-[4-[5-(trifluoromethyl)-1,2,4-oxadiazol-3-yl]phenyl]acetamide] | ≥ 80 | – | ≥ 80 | 118 to 120 | ≥ 80
3 | C=CCNC(=O)C(=O)c1ccc(-c2noc(C(F)(F)F)n2)cc1 [Compound 1.25, N-allyl-2-oxo-2-[4-[5-(trifluoromethyl)-1,2,4-oxadiazol-3-yl]phenyl]acetamide] | ≥ 80 | ≥ 80 | ≥ 80 | 71 to 74 | ≥ 80
4 | O=C(NCCF)C(=O)c1ccc(-c2noc(C(F)(F)F)n2)cc1 [Compound 1.31, N-(2-fluoroethyl)-2-oxo-2-[4-[5-(trifluoromethyl)-1,2,4-oxadiazol-3-yl]phenyl]acetamide] | ≥ 80 | ≥ 80 | ≥ 80 | 94 to 100 | ≥ 80
5 | O=C(NC1CCCC1(F)F)C(=O)c1ccc(-c2noc(C(F)(F)F)n2)cc1 (centres unmarked) [Compound 1.34, N-(2,2-difluoro-cyclopentyl)-2-oxo-2-[4-[5-(trifluoromethyl)-1,2,4-oxadiazol-3-yl]phenyl]acetamide] | ≥ 80 | ≥ 80 | ≥ 80 | 64 to 70 | ≥ 80
6 | CC(C)(C)OC(=O)NCCNC(=O)C(=O)c1ccc(-c2noc(C(F)(F)F)n2)cc1 [Compound 1.37, tert-butyl N-[2-[[2-oxo-2-[4-[5-(trifluoromethyl)-1,2,4-oxadiazol-3-yl]phenyl]acet-yl]amino]eth-yl]carbamate] | – | – | ≥ 80 | 155 to 156 | ≥ 80
7 | COC(CNC(=O)C(=O)c1ccc(-c2noc(C(F)(F)F)n2)cc1)OC [Compound 1.38, N-(2,2-dimethoxyethyl)-2-oxo-2-[4-[5-(trifluoromethyl)-1,2,4-oxadiazol-3-yl]phenyl]acetamide] | ≥ 80 | ≥ 80 | – | 88 to 89 | ≥ 80
8 | CCNC(=O)C(=O)c1ccc(-c2noc(C(F)(F)F)n2)cc1 [Compound 1.39, N-ethyl-2-oxo-2-[4-[5-(trifluoromethyl)-1,2,4-oxadiazol-3-yl]phenyl]acetamide] | ≥ 80 | ≥ 80 | ≥ 80 | 105 to 110 | ≥ 80
9 | C#CCNC(=O)C(=O)c1ccc(-c2noc(C(F)(F)F)n2)cc1 [Compound 1.41, 2-oxo-N-prop-2-ynyl-2-[4-[5-(trifluoromethyl)-1,2,4-oxadiazol-3-yl]phenyl]acetamide] | ≥ 80 | ≥ 80 | ≥ 80 | 79 to 84 | ≥ 80
10 | CCCNC(=O)C(=O)c1ccc(-c2noc(C(F)(F)F)n2)cc1 [Compound 1.42, 2-oxo-N-propyl-2-[4-[5-(trifluoromethyl)-1,2,4-oxadiazol-3-yl]phenyl]acetamide] | ≥ 80 | ≥ 80 | ≥ 80 | – | ≥ 80
11 | O=C(NCC1CC1)C(=O)c1ccc(-c2noc(C(F)(F)F)n2)cc1 [Compound 1.43, N-(cyclopropyl-methyl)-2-oxo-2-[4-[5-(trifluoromethyl)-1,2,4-oxadiazol-3-yl]phenyl]acetamide] | ≥ 80 | ≥ 80 | ≥ 80 | 86 to 95 | ≥ 80

From patent publication US10653146B2, “Microbiocidal oxadiazole derivatives” (SYNGENTA PARTICIPATIONS AG, priority 2016, dated 2020)
